Assay results from ChEMBL document CHEMBL5104093, “A comprehensive review on β-lapachone: Mechanisms, structural modifications, and therapeutic potentials” (Eur J Med Chem, 2021).
≈ marks a conversion by molar mass, not a printed value.

Key:
[1] = system: Mycobacterium tuberculosis; test: Antimycobacterial activity against Mycobacterium tuberculosis H37Rv ATCC 27294 assessed as bacterial growth inhibition incubated for 7 days by resazurin dye based microtiter assay; assay type: functional; details: ATCC 27294, 168 h, time 7 day
[2] = system: Trypanosoma cruzi; test: Antitrypanosomal activity against bloodstream form of Trypanosoma cruzi Y trypomastigotes infected in albino mouse assessed as reduction in viable parasite in blood incubated for 24 hrs by Neubauer counting chamber method; assay type: functional, organism-based
[3] = system: HL-60; test: Cytotoxicity against human HL-60 cells assessed as reduction in cell viability incubated for 72 hrs by MTT assay; assay type: functional, cell-based; details: HL-60, 72 h
[4] = system: K562; test: Cytotoxicity against human K562 cells assessed as reduction in cell viability incubated for 72 hrs by MTT assay; assay type: functional, cell-based; details: K562, 72 h
[5] = system: Jurkat; test: Cytotoxicity against human Jurkat cells assessed as reduction in cell viability incubated for 72 hrs by MTT assay; assay type: functional, cell-based
[6] = system: MOLT-4; test: Cytotoxicity against human MOLT-4 cells assessed as reduction in cell viability incubated for 72 hrs by MTT assay; assay type: functional, cell-based; details: MOLT-4, 72 h
[7] = system: Trypanosoma cruzi; test: Antitrypanosomal activity against bloodstream form of Trypanosoma cruzi trypomastigotes infected in Swiss mouse assessed as reduction in viable parasite in blood incubated for 24 hrs by Neubauer counting chamber method; assay type: functional, organism-based
[8] = system: HepG2; test: Cytotoxicity against human HepG2 cells assessed as reduction in cell viability incubated for 48 hrs by MTT assay; assay type: functional, cell-based; details: HepG2, 48 h
[9] = system: PC-3; test: Cytotoxicity against human PC-3 cells assessed as reduction in cell viability incubated for 72 hrs by MTT assay; assay type: functional, cell-based; details: PC-3, 72 h
[10] = system: SF-295; test: Cytotoxicity against human SF-295 cells assessed as reduction in cell viability incubated for 72 hrs by MTT assay; assay type: functional, cell-based; details: SF-295, 72 h
[11] = system: B16; test: Cytotoxicity against mouse B16 cells assessed as reduction in cell viability incubated for 72 hrs by MTT assay; assay type: functional, cell-based; details: B16, 72 h
[12] = system: MDA-MB-435; test: Cytotoxicity against human MDA-MB-435 cells assessed as reduction in cell viability incubated for 72 hrs by MTT assay; assay type: functional, cell-based; details: MDA-MB-435, 72 h
[13] = system: HCT-8; test: Cytotoxicity against human HCT-8 cells assessed as reduction in cell viability incubated for 72 hrs by MTT assay; assay type: functional, cell-based; details: HCT-8, 72 h
[14] = system: Staphylococcus aureus; test: Antibacterial activity against Staphylococcus aureus 2065 MA assessed as diameter of bacterial growth inhibition by Mueller-Hinton broth based assay; assay type: functional
[15] = system: Trypanosoma cruzi; test: Antitrypanosomal activity against bloodstream form of Trypanosoma cruzi Y trypomastigotes infected in Swiss Webster mouse assessed as reduction in viable parasite in blood incubated for 24 hrs by Neubauer counting chamber based light microscopic analysis; assay type: functional, organism-based
[16] = system: Trypanosoma cruzi; test: Antitrypanosomal activity against bloodstream form of Trypanosoma cruzi Y trypomastigotes infected in albino mouse assessed as reduction in viable parasite in blood by Neubauer counting chamber method; assay type: functional, organism-based
[17] = system: SF-295; test: Cytotoxicity against human SF-295 cells assessed as reduction in cell viability by MTT assay; assay type: functional, cell-based
[18] = system: HL-60; test: Cytotoxicity against human HL-60 cells assessed as reduction in cell viability by MTT assay; assay type: functional, cell-based
[19] = system: OVCAR-8; test: Cytotoxicity against human OVCAR-8 cells assessed as reduction in cell viability by MTT assay; assay type: functional, cell-based
[20] = system: HCT-116; test: Cytotoxicity against human HCT-116 cells assessed as reduction in cell viability by MTT assay; assay type: functional, cell-based
[21] = system: NCI-H292; test: Cytotoxicity against human NCI-H292 cells assessed as reduction in cell viability incubated for 72 hrs by MTT assay; assay type: functional, cell-based; details: NCI-H292, 72 h
[22] = system: HEp-2; test: Cytotoxicity against human HEp-2 cells assessed as reduction in cell viability incubated for 72 hrs by MTT assay; assay type: functional, cell-based; details: HEp-2, 72 h

## CC1(C)OC2=C(C(=O)C(=O)c3ccccc32)[C@H](n2cc(-c3ccc(Br)cc3)nn2)[C@H]1Br
[1]
  MIC: < 6.25 µg/mL

## CC1(C)OC2=C(C(=O)C(=O)c3ccccc32)[C@H](n2cc(-c3ccc(F)cc3)nn2)[C@H]1Br
[1]
  MIC: < 6.25 µg/mL

## COc1ccc(-c2cn([C@H]3C4=C(OC(C)(C)[C@@H]3Br)c3ccccc3C(=O)C4=O)nn2)cc1
[1]
  MIC: < 6.25 µg/mL

## CC1(C)OC2=C(C(=O)C(=O)c3ccccc32)[C@H](n2cc(-c3ccccc3)nn2)[C@H]1Br
[1]
  MIC: < 6.25 µg/mL

## C=CCC1Cc2c(c3ccccc3c3nc4ccccc4nc23)OC1(C)C (stereo not given)
[1]
  MIC: 0.78 µg/mL (≈ 2.2 µM)

## CC1(C)CCc2c(c3ccccc3c3nc(-c4ccc5c(c4)OCO5)oc23)O1
[2]
  IC50: 270 µM

## CC1(C)OC2=C(C(=O)C(=O)c3ccccc32)C1n1cc(-c2ccc(F)cc2)nn1 (stereo not given)
[3]
  IC50: 1330 nM
[4]
  IC50: 1330 nM
[5]
  IC50: 1330 nM
[6]
  IC50: 1330 nM

## CC1(C)OC2=C(C(=O)C(=O)c3ccccc32)C1n1cc(-c2ccc([N+](=O)[O-])cc2)nn1 (stereo not given)
[3]
  IC50: 740 nM
[4]
  IC50: 740 nM
[5]
  IC50: 740 nM
[6]
  IC50: 740 nM

## COc1ccc(-c2cn(C3C4=C(OC3(C)C)c3ccccc3C(=O)C4=O)nn2)cc1 (stereo not given)
[3]
  IC50: 940 nM
[4]
  IC50: 940 nM
[5]
  IC50: 940 nM
[6]
  IC50: 940 nM

## CC1CC2=C(O1)c1ccccc1C(=O)C2=O (stereo not given)
[3]
  IC50: 1110 nM

## CC1(C)CCc2c(c3ccccc3c3nc(-c4ccccc4)[nH]c23)O1
[7]
  IC50: 37.5 µM

## CC1(C)CCc2c(c3ccccc3c3nc(-c4cccc(Br)c4)[nH]c23)O1
[1]
  MIC: 1.56 µg/mL (≈ 3.83 µM)

## CC1(C)CCc2c(c3ccccc3c3nc(-c4ccc(Br)cc4)[nH]c23)O1
[7]
  IC50: 37.5 µM

## CC1(C)CCc2c(c3ccccc3c3nc(-c4cccc(F)c4)[nH]c23)O1
[1]
  MIC: 1.56 µg/mL (≈ 4.5 µM)

## CC1(C)CCc2c(c3ccccc3c3nc(-c4ccc(F)cc4)[nH]c23)O1
[7]
  IC50: 37.5 µM

## CC1(C)CCc2c(c3ccccc3c3nc(-c4ccc([N+](=O)[O-])cc4)[nH]c23)O1
[1]
  MIC: > 100 µg/mL

## COc1ccccc1-c1nc2c([nH]1)c1c(c3ccccc32)OC(C)(C)CC1
[1]
  MIC: 1.56 µg/mL (≈ 4.35 µM)

## Cc1ccccc1-c1nc2c([nH]1)c1c(c3ccccc32)OC(C)(C)CC1
[7]
  IC50: 37.5 µM
[1]
  MIC: 1.56 µg/mL (≈ 4.56 µM)

## CC1(C)CCc2c(c3ccccc3c3nc(-c4cccc(C(F)(F)F)c4)[nH]c23)O1
[1]
  MIC: 1.56 µg/mL (≈ 3.94 µM)

## Cc1ccc(-c2nc3c([nH]2)c2c(c4ccccc43)OC(C)(C)CC2)cc1
[1]
  MIC: 3.12 µg/mL (≈ 9.11 µM)

## O=C1C(=O)c2ccccc2C2=C1CCCO2
[8]
  IC50: 920 nM

## CC1(C)OC2=C(C(=O)C(=O)c3ccccc32)C1n1cc(C2=CCCCC2)nn1 (stereo not given)
[9]
  IC50: < 1250 nM
[3]
  IC50: < 5000 nM
[10]
  IC50: < 1250 nM
[11]
  IC50: < 1250 nM
[12]
  IC50: < 1250 nM
[13]
  IC50: < 1250 nM

## CC1(C)OC2=C(C(=O)C(=O)c3ccccc32)C1Sc1c(F)c(F)c(F)c(F)c1F (stereo not given)
[14]
  zone diameter: 10 mm

## CC1(C)OC2=C(CC1[Se]c1ccccc1)C(=O)C(=O)c1ccccc12 (stereo not given)
[15]
  IC50: 103 µM

## CC1(C)OC2=C(CC1[Se]c1cccc(C(F)(F)F)c1)C(=O)C(=O)c1ccccc12 (stereo not given)
[15]
  IC50: 54.9 µM
[16]
  IC50: 54.9 µM

## CCCC[Se]C1CC2=C(OC1(C)C)c1ccccc1C(=O)C2=O (stereo not given)
[15]
  IC50: 109 µM

## COc1ccc(/C=C/C(=O)c2ccc(NC3C4=C(OC3(C)C)c3ccccc3C(=O)C4=O)cc2)cc1 (stereo not given)
[16]
  IC50: 230 µM

## COc1ccc(-c2nc3c([nH]2)c2c(c4ccccc43)OC(C)(C)CC2)cc1
[2]
  IC50: 259 µM

## CC1(C)O[C@@H]2O[C@@H](COC3C4=C(OC3(C)C)c3ccccc3C(=O)C4=O)[C@H]3OC(C)(C)O[C@H]3[C@@H]2O1 (stereo not given in full)
[17]
  IC50: 160 nM
[18]
  IC50: 160 nM
[19]
  IC50: 160 nM
[20]
  IC50: 160 nM

## CC(=O)OCC1C2=C(OC1(C)C)c1ccccc1C(=O)C2=O (stereo not given)
[21]
  IC50: 600 nM
[22]
  IC50: 600 nM
